Test results published in article PMC8541628, “Development of Novel Quinoline-Based Sulfonamides as Selective Cancer-Associated Carbonic Anhydrase Isoform IX Inhibitors” (International Journal of Molecular Sciences, 2021).

Tests used:
MDA-MB-231 = assay: 72 h MTT anti-proliferative assay under hypoxic conditions, MDA-MB-231; type: cell-based; conditions: Homo sapiens, mean ± S.D. of three experiments
Source text: (§1) 1. Carbonic anhydrase inhibition assay
The enzymes are recombinant proteins prepared in our lab.
parameters and inhibition constants.
2. Anti-proliferative action toward human breast cell lines

Bcl-2 = Bcl-2 expression level (ELISA) in MDA-MB-231 cells; type: cell-based, human; conditions: for Bcl-2 / Bcl-2, folds of control: 24 h incubation; for decrease in the expression level of Bcl-2 protein: in comparison to the untreated control
Method: The levels of two members of Bcl-2 family proteins, the anti-apoptotic Bcl-2 protein, and the counteracting pro-apoptotic Bax protein, as well as the level of active caspase-3 (a key executioner protease) in MDA-MB-231 and MCF-7 cells have been assessed after incubation with QBS 11c and 13b for 24 h.
All adopted procedures for the conducted in vitro biological assays were performed as described earlier; CA (stopped-flow), cytotoxicity (MTT [37, 38]), and assessment of apoptotic markers assays, as well as induction of hypoxia with cobalt chloride, and were mentioned in the Supporting Materials. […]
3. Assessment of Apo ptotic Markers Levels
The levels of the pro-apoptotic markers (Bax and active caspase-3) as well as the anti-apoptotic marker Bcl-2 were determined using ELISA kits; Human Bax ELISA Kit (EIA-4487) DRG® Instruments, Bcl-2 ELISA Kit (99–0042), Zymed® Laboratories, Invitrogen Immunodetection, and Human Caspase-3 (active) ELISA Kit (KHO1091) Invitrogen®, per the manufacturer’s instructions. Breast cancer MDA-MB-231 and MCF-7 cells were cultured as a monolayer in T-25 flasks and were seeded to attain 30% confluency prior to treatment. Cells were then treated separately with MBFS 11b at its IC50 concentration for 24 h. At the end of treatment, cells were collected via trypsinization and centrifuged at 10,000 rpm. The pellet was then rinsed with PBS and lysed in RIPA lysis buffer at 4 °C for 45 min, then centrifuged at 14,000 rpm for 20 min to remove the cellular debris. Lysates were then collected and stored at −80 °C for later protein determination using Pierce BCA Protein Assay Kit according to manufacturer’s recommendations.
The cell lysate was diluted 10 times, and 100 μL ([…]) was added to the wells of […] separate microtiter plates for the three ELISA kits th at were pre-coated with primary antibodies specific to Bax, Bcl-2, and caspase-3 proteins, respectively. A secondary biotin-linked antibody specific to the protein captured by the primary antibody was further added to bind the […]
captured protein, forming a “sandwich” of specific antibodies around the desired protein in the cell lysate. The streptavidin-HRP complex was then used to bind the biotin-linked secondary antibody through its streptavidin portion. The HRP domain reacted with the added TMB substrate to form a colored product that measured at 450 nm by a plate reader ChroMate-4300 after the reaction was terminated via the addition of stop solution. […]
The ligand 3D structures were prepared by Maestro and their ionization states was checked with Epik at pH 7.4±0.5 then they were subjected to energy minimization using OPLS3 force field in Macromodel with a maximum number of 2500 conjugate gradient iteration and a convergence of 0.05 kcal mol−1 A−1. Glide with default parameters was u sed to generate th e docking g rid setting the center of the co-crystallized lig and s as grid center. Docking was performed using the standard precision mode (SP) implemented in Glide and the top 5 poses for each ligand were returned. Prime MMGBSA was used for the refinement of the best pose for each ligand, using VSGB solvation model setting the receptor flexible within 3 A around the ligand.

MCF-7 = assay: 72 h MTT anti-proliferative assay under hypoxic conditions, MCF-7; type: cell-based; conditions: Homo sapiens, MCF7, mean ± S.D. of three experiments
Method: Therefore, QBS 11c and 13b were further screened for their potential in vitro anti-proliferative action against two breast cancer cell lines (MDA-MB-231 and MCF-7) under hypoxic conditions, exploiting a 72 h MTT assay protocol and using Doxorubicin as a positive control drug.
All adopted procedures for the conducted in vitro biological assays were performed as described earlier; CA (stopped-flow), cytotoxicity (MTT [37, 38]), and assessment of apoptotic markers assays, as well as induction of hypoxia with cobalt chloride, and were mentioned in the Supporting Materials.
as §1
16) herein reported have were assayed utilizing an instrument of Applied Photophysics stopped-flow. The enzymes are recombinant proteins prepared in our lab. Phenol red (at a concentration of 0.2 mM) has been used as indicator, working at the absorbance maximum of 557 nm, with 20 mM Hepes (pH 7.5) as buffer, and 20 mM Na2SO4 (for maintaining constant the ionic strength), […]
parameters and inhibition constants. For each inhibitor at least six traces of the initial 5-10% of the reaction have been used for determining the initial velocity . Th e un cat aly zed rates were determined in the same manner and subtracted from the total observed rates. Stock solutions of inhibitor (0.1 mM) were prepared in distilled-deionized water and dilutions up to 0.01 nM were done thereafter with the assay buffer. Inhibitor and enzyme solutions were preincubated together for 15 min at room temperature prior to assay, in order to allow fo r the formation of the E-I complex. […]
Cells were sub-cultured with try psine /EDTA solution, counted with haemocy tometer and plated onto 96-well plates (5000 cells/well) and left overnight to form a semi-confluent […]
monolay er. […] DMSO (100 µl/well) was added to dissolve the formazan crystals with shaking for 10 min after which the absorbance was read at 590 nm against no cell blanks on a FLuo Star Optima microplate reader (BMG technologies, Germany). Cell proliferation was calculated comparing the OD values of the DMSO control wells and those of the samples

IC50 (MDA-MB-231)	IC50 (MCF-7)	Compound	Bcl-2 (Bcl-2)	Bcl-2, folds of control (Bcl-2)	decrease in the expression level of Bcl-2 protein (Bcl-2)
1030 ± 50 nM	430 ± 20 nM	NS(=O)(=O)c1cccc(Nc2ccnc3ccc(Cl)cc23)c1 [11c, 3-((6-chloroquinolin-4-yl)amino)benzenesulfonamide]	6.45 ± 0.17 Pg/mg of Total Protein	0.45 folds of control	55%
2240 ± 100 nM	3690 ± 170 nM	COc1ccc2nccc(Nc3ccc(S(N)(=O)=O)cc3)c2c1 [13b, 4-((6-methoxyquinolin-4-yl)amino)benzenesulfonamide]	5.304 ± 0.13 Pg/mg of Total Protein	0.37 folds of control	63%
